The test has as its system rat dopaminergic neuronal cells (N27). Description: Nurr1-regulated gene expression (qPCR) in N27 cells. It is filed as cell-based. The protocol: Nurr1 is a key factor of neuroprotection and health of dopaminergic neurons. Therefore, we explored the impact of 2 (10 μM) and 3 (1 μM) on gene expression in rat dopaminergic neuronal cells (N27), which have been widely used to study Nurr1 agonists[17],[18],[38],[39]. Both compounds were non-toxic at the test concentrations in a multiplex toxicity assay (Figure S5). […] Modulation of Nurr1 LBD homodimerization and heterodimerization of the LDBs of Nurr1 and RXRα was investigated by HTRF as reported previously4. Nurr1 LBD or RXRα LBD proteins labeled with sGFP were titrated against a fixed concentration of Tb3+-cryptate as streptavidin conjugate ([…], Revvity) coupled to biotinylated Nurr1 LBD protein in the presence of test compounds at 30 μM or absence of compound as a negative control (apo). Assay solutions were prepared in buffer containing 25 mM HEPES pH 7.5, 150 mM KF, 5% (m/v) glycerol, 5 mM DTT, 0.1% (m/v) CHAPS and 1% DMSO. The FRET donor complex was formed from biotinylated Nurr1 LBD (final concentration 0.188 nM) and Tb-SA (0.375 nM) and was kept constant. For the homodimerization assay, the FRET acceptor consisted of sGFP-Nurr1 LBD, which was titrated from 0.5 μM, while free sGFP was added to keep the total GFP content stable at 0.5 μM. For the heterodimerization assay, the FRET acceptor sGFP-RXRα LBD was titrated from 6 μM, while free sGFP was added to keep a constant concentration of GFP at 6 μM. Samples were equilibrated at room temperature for 2 h and fluorescence intensities (FI) after excitation at 340 nm were recorded at 520 nm for sGFP acceptor fluorescence and at 620 for Tb-SA donor fluorescence on a SPARK plate reader (Tecan Group Ltd.). FI520 was divided by FI620 and multiplied by 10,000 to give a dimensionless HTRF signal. For dose-response curve fitting, the equation “[Agonist] versus response-variable slope (four parameters)” was used in GraphPad Prism ( version 9.5.1, GraphPad Software, La Jolla, CA). Evaluation of Nurr1-regulated gene expression. N27 rat dopaminergic neural cells (SCC048, Sigma-Aldrich, Darmstadt, Germany) were cultured in RPMI 1640 medium (Gibco, Thermo Fisher Scientific, Waltham, MA, USA) supplemented with 10% FCS, penicillin (100 U/mL), and streptomycin (100 μg/mL) at 37 °C and 5% and seeded in 12-well plates (3×10^5 cells/well). […] RNA concentration and purity were assessed using a NanoDrop One UV-vis spectrophotometer (Thermo Fisher Scientific) at 260/280 nm. […]
On the technique in general: Quantitative PCR measures a nucleic acid by following its amplification.

Results on two molecules are retold here after PMC7618597, “Dual Nurr1/RXR agonism of valerenic acid and synthetic mimetics enables dimer-selective Nurr1 modulation” (ACS medicinal chemistry letters, 2025).

Structures are written as SMILES.

Consider `Cc1c(C)n(-c2ccc(CC(=O)O)cc2)c2ccc(F)cc12` [compound 3], for which, under “1 μM”, the “mRNA expression of TH, FLRT2, BDNF, CRMP4” value is “robustly upregulated” and the “mRNA expression of XIAP, SESN3, CCND2, BIRC5, SOD2” value is reported as “not induced”.

Take `Cc1c2c(n(-c3ccc(CC(=O)O)cc3)c1C)CCC(F)(F)C2` [compound 2]: for the setting “10 μM”, the “mRNA expression of TH, FLRT2, BDNF, CRMP4” value is recorded as “robustly upregulated” and the “mRNA expression of XIAP, SESN3, CCND2, BIRC5, SOD2” value is on record as “not induced”.
